Patent US4772586A, “Novel derivatives of arginine vasopressin antagonists” (Medical College of Ohio, priority 1986, dated 1988)
*1 amine or outer side, *2 acyl side, *3 side chain or, on linkers, in order; H or OH if unused. Where a SMILES comes first, the peptide text is derived from it. Bridges are numbered along the chain shown (N, C = ends). [ ]: non-standard residue; d: D form. The star is where a group is joined. Ethylenediamine = C(CN[*:2])N[*:1]; X1 = O=C(CC1(S[*:2])CCCCC1)[*:1]; Orn = NCCC[C@H](N)C(=O)O; NH(CH2)4NH2 = NCCCCN*; NHBu = CCCCN*

Legend:
[1] = tested on: antidiuretic response to arginine vasopressin; assay: Antagonism of the antidiuretic response to arginine vasopressin (Anti-ADH); type: in vivo, rats; conditions: for Anti-ADH Potency pA2: estimated in vivo pA2; for Anti-ADH pA2: Table 1, estimated in vivo pA2 = negative log of effective dose divided by volume of distribution (67 ml/kg)
Procedure: Activity as antidiuretic agonists was determined by intravenous injection of the compounds being evaluated in ethanol-anesthesized water-loaded rats in accordance with Sawyer, Endocrinology, vol. 63 (1958) at 694. Antagonism of the antidiuretic response to subsequent injections of arginine vasopressin was tested by the method of Sawyer et al., Science, vol. 212 (1981) at 49.
(§1) Antagonistic potencies were determined and expressed as "effective doses" and pA2 values. The "effective dose" is defined as the dose (in nanomoles per kilogram) that reduces the response seen from 2x units of agonist injected 20 min after the dose of antagonist to the response with 1x units of agonist. Estimated in vivo "pA2 " values represent the negative logarithms of the effective doses, divided by the estimated volume of distribution (67 ml/kg).

[2] = tested on: vasopressor response to arginine vasopressin; assay: Antagonism to the vasopressor response (Anti-VP); type: in vivo; conditions: estimated in vivo pA2; for Anti-VP pA2: Table 1
Procedure: Antagonism to the vasopressor response was estimated in accordance with Dyckes et al., J. Med. Chem., vol. 17 (1974) at 969. The values are expressed as pA2 values, defined as in Schild et al., Br. J. Pharmacol., vol. 2 (1947) at 189.
as §1

Row | Compound | Anti-VP Potency pA2 ([2]; Table 4, ^+ = mixed) | Anti-ADH pA2 [1] | Anti-VP pA2 [2] | further results
1 | CCOc1ccc(C[C@H]2NC(=O)CC3(CCCCC3)SSC[C@@H](C(=O)N3CCC[C@H]3C(=O)N[C@@H](CCCNC(=N)N)C(=O)NCCCCN)NC(=O)[C@H](CC(N)=O)NC(=O)[C@H]([C@@H](C)CC)NC(=O)[C@H](Cc3ccccc3)NC2=O)cc1 [[1-(beta-mercapto-beta,beta-cyclopentamethylenepropionic acid), 2-D-(O-ethyl)tyrosine, 4-isoleucine, 8-arginine-N-(delta-amino)butylamide,9-desglycinamide] vasopressin] ([dY](Et)FINCPR-{NH(CH2)4NH2}; linker N-5 via X1) | 7.78 ± 0.4 |  |  | Anti-ADH Potency pA2 ([1]; Table 4): 7.68 ± 0.05
2 | CC(C)[C@@H]1NC(=O)[C@H](Cc2ccccc2)NC(=O)[C@@H](Cc2ccccc2)NC(=O)CC2(CCCCC2)SSC[C@@H](C(=O)N2CCC[C@H]2C(=O)N[C@@H](CCCNC(=N)N)C(N)=O)NC(=O)[C@H](CC(N)=O)NC1=O [desGly^9 d(CH2)5 [D-Phe^2]VAVP, [1-(beta-mercapto-beta,beta-cyclopentamethylenepropionic acid), 2-D-phenylalanine, 4-valine, 9-desglycine]-arginine vasopressin] ([dF]FVNCPR-NH2; linker N-5 via X1) |  | 8.09 ± 0.08 | 8.15 ± 0.03 | 
3 | CC[C@H](C)[C@@H]1NC(=O)[C@H](Cc2ccccc2)NC(=O)[C@@H](Cc2ccccc2)NC(=O)CC2(CCCCC2)SSC[C@@H](C(=O)N2CCC[C@H]2C(=O)N[C@@H](CCCNC(=N)N)C(=O)NCC(=O)O)NC(=O)[C@H](CC(N)=O)NC1=O [d(CH2)5 [D-Phe^2,Ile^ 4]AVP acid, [1-(beta-mercapto-beta,beta-cyclopentamethylenepropionic acid), 2-D-phenylalanine, 4-isoleucine, 9-glycine]-arginine vasopressin] ([dF]FINCPRG-OH; linker N-5 via X1) |  | 7.11 ± 0.11 | 6.94 ± 0.08 | 
4 | CC(C)[C@@H]1NC(=O)[C@H](Cc2ccccc2)NC(=O)[C@@H](Cc2ccccc2)NC(=O)CC2(CCCCC2)SSC[C@@H](C(=O)N2CCC[C@H]2C(=O)N[C@@H](CCCNC(=N)N)C(=O)O)NC(=O)[C@H](CC(N)=O)NC1=O [desGly(NH2)^9 d(CH2)5 [D-Phe^2]VAVP, [1-(beta-mercapto-beta,beta-cyclopentamethylenepropionic acid), 2-D-phenylalanine, 4-valine, 9-desglycinamide]-arginine vasopressin] ([dF]FVNCPR-OH; linker N-5 via X1) |  | 7.75 ± 0.11 | 7.93 ± 0.05 | 
5 | N=C(N)NCCC[C@H](NC(=O)[C@@H]1CCCN1C(=O)[C@@H]1CSSC2(CCCCC2)CC(=O)N[C@@H](Cc2ccc(O)cc2)C(=O)N[C@@H](Cc2ccccc2)C(=O)N[C@@H](CCC(N)=O)C(=O)N[C@@H](CC(N)=O)C(=O)N1)C(N)=O [desGly^9 d(CH2)5 AVP, [1-(beta-mercapto-beta,beta-cyclopentamethylenepropionic acid), 9-desglycine]-arginine vasopressin] (YFQNCPR-NH2; linker N-5 via X1) |  |  | 8.40 ± 0.06 | 
6 | CC[C@H](C)[C@@H]1NC(=O)[C@H](Cc2ccccc2)NC(=O)[C@@H](Cc2ccccc2)NC(=O)CC2(CCCCC2)SSC[C@@H](C(=O)N2CCC[C@H]2C(=O)N[C@@H](CCCNC(=N)N)C(=O)N[C@@H](CCCN)C(N)=O)NC(=O)[C@H](CC(N)=O)NC1=O [Orn(NH2), [1-(beta-mercapto-beta,beta-cyclopentamethylenepropionic acid), 2-D-phenylalanine, 4-isoleucine, 9-ornithinamide]-arginine vasopressin] ([dF]FINCPR[Orn]-NH2; linker N-5 via X1) |  |  |  | Anti-ADH Potency pA2 ([1]; Table 2): 8.18 ± 0.09; Anti-VP Potency pA2 ([2]; Table 2): 7.80 ± 0.05
7 | CCOc1ccc(C[C@@H]2NC(=O)CC3(CCCCC3)SSC[C@@H](C(=O)N3CCC[C@H]3C(=O)N[C@@H](CCCNC(=N)N)C(=O)NCC(N)=O)NC(=O)[C@H](CC(N)=O)NC(=O)[C@H](C(C)C)NC(=O)[C@H](Cc3ccccc3)NC2=O)cc1 [d(CH2)5 [Tyr(Et)]^2 VAVP, [1-(beta-mercapto-beta,beta-cyclopentamethylenepropionic acid), 2-(O-ethyl)tyrosine, 4-valine]-arginine vasopressin, reference compound] (Y(Et)FVNCPRG-NH2; linker N-5 via X1) |  | 7.57 ± 0.06 | 8.16 ± 0.09 | 
8 | CCCCNC(=O)[C@H](CCCNC(=N)N)NC(=O)[C@@H]1CCCN1C(=O)[C@@H]1CSSC2(CCCCC2)CC(=O)N[C@H](Cc2ccccc2)C(=O)N[C@@H](Cc2ccccc2)C(=O)N[C@@H]([C@@H](C)CC)C(=O)N[C@@H](CC(N)=O)C(=O)N1 [[1-(beta-mercapto-beta,beta-cyclopentamethylenepropionic acid), 2-D-phenylalanine, 4-isoleucine, 8-arginine-N-(n-butyl)amide, 9-desglycinamide)] vasopressin] ([dF]FINCPR-NHBu; linker N-5 via X1) | 7.13 ± 0.08 |  |  | 
9 | N=C(N)NCCC[C@H](NC(=O)[C@@H]1CCCN1C(=O)[C@@H]1CSSC2(CCCCC2)CC(=O)N[C@@H](Cc2ccc(O)cc2)C(=O)N[C@@H](Cc2ccccc2)C(=O)N[C@@H](CCC(N)=O)C(=O)N[C@@H](CC(N)=O)C(=O)N1)C(=O)NCC(N)=O [d(CH2)5 AVP, [1-(beta-mercapto-beta,beta-cyclopentamethylenepropionic acid)]-arginine vasopressin, reference compound] (YFQNCPRG-NH2; linker N-5 via X1) |  |  | 8.16 ± 0.09 | 
10 | COc1ccc(C[C@@H]2NC(=O)CC3(CCCCC3)SSC[C@@H](C(=O)N3CCC[C@H]3C(=O)N[C@@H](CCCNC(=N)N)C(=O)NCC(=O)NCCN)NC(=O)[C@H](CC(N)=O)NC(=O)[C@H](CCC(N)=O)NC(=O)[C@H](Cc3ccccc3)NC2=O)cc1 [[1-(beta-mercapto-beta,beta-cyclopentamethylenepropionic acid), 2-(O-methyl)tyrosine, 9-glycine-N-(beta-amino)ethylamide]-arginine vasopressin] (Y(Me)FQNCPRG-Ethylenediamine; linker N-5 via X1) | 8.39 ± 0.05 |  |  | 
11 | N=C(N)NCCC[C@H](NC(=O)[C@@H]1CCCN1C(=O)[C@@H]1CSSC2(CCCCC2)CC(=O)N[C@@H](Cc2ccc(O)cc2)C(=O)N[C@@H](Cc2ccccc2)C(=O)N[C@@H](CCC(N)=O)C(=O)N[C@@H](CC(N)=O)C(=O)N1)C(=O)O [desGly(NH2)^9 d(CH2)5 AVP, [1-(beta-mercapto-beta,beta-cyclopentamethylenepropionic acid), 9-desglycinamide]-arginine vasopressin] (YFQNCPR-OH; linker N-5 via X1) |  |  | 7.88 ± 0.06 | 
12 | CCCCNC(=O)CNC(=O)[C@H](CCCNC(=N)N)NC(=O)[C@@H]1CCCN1C(=O)[C@@H]1CSSC2(CCCCC2)CC(=O)N[C@@H](Cc2ccc(OC)cc2)C(=O)N[C@@H](Cc2ccccc2)C(=O)N[C@@H](CCC(N)=O)C(=O)N[C@@H](CC(N)=O)C(=O)N1 [d(CH2)5 [Tyr(Me)^2, Gly(NHBu-n)^9]AVP, [1-(beta-mercapto-beta,beta-cyclopentamethylenepropionic acid), 2-(O-methyl)tyrosine, 9-glycine-N-(n-butyl)amide]-arginine vasopressin] (Y(Me)FQNCPRG-NHBu; linker N-5 via X1) | 8.44 ± 0.07 |  |  | 
